Measurements taken from patent US11149062B2, “HDAC inhibitors and methods of treatment using the same” (UWM Research Foundation, Inc., priority 2015, dated 2021).

What was measured:
in vivo = conditions: BALB/c, mouse, in vivo, ip
Description: BALB/c mice were purchased from The Jackson Laboratory (Bar Harbor, Me.) and used between 7 and 10 weeks of age. Mice were housed in a conventional animal vivarium and were given free access to food and water. All studies and procedures were approved by the Animal Care and Use Committee of the University of Wisconsin, Milwaukee.
Each animal was initially weighed using a digital scale and then intraperitoneally (IP) injected with the compounds (listed in Table 2). A single mouse was given a single IP dose of 200 mg/kg, body weight, a second mouse received a dose of 100 mg/kg and a third mouse received a single dose of 50 mg/kg. The mice were observed and weighed every other day for a period of 2 weeks. They were euthanized if they lost more than 20% of their body weight or if there were other signs of significant toxicity. […] This process was repeated until a tolerated dose was found, and the MTD value was determined.
To determine the MTD in vivo, the compounds listed above were injected intraperitoneally into BALB/c mice and morbidity and mortality were monitored over two weeks.

[1] = 10 mg/mL cpd in 20% DMSO/saline
HeLa (cervical cancer) = assay: MTT antiproliferative assay, HeLa; type: cell-based; conditions: Homo sapiens, MTT, 48 h, read-out: Antiproliferative Activity GI50, Cervical HeLa
Protocol: (§1) Briefly, the tumor cells (1×10^4 cells/well) were seeded in 96-well microtiter plates and incubated for 24 h at 37° C. Following incubation, the media was replaced with fresh media containing the above compounds at concentrations ranging from 1 μM to 1 pM diluted in DMSO and incubated for an additional 48 h. Drugs were run in duplicate or triplicate and control cells received fresh media with DMSO concentration equivalent to the treatment groups. […] After aspirating the culture medium, 200 μL of DMSO was added to dissolve the precipitate and the resulting solution was measured for absorbance at 570 nm with a reference wavelength of 690 nm using a microplate reader (Infinite M200 Pro TECAN).

HCT-116 (colon cancer) = assay: MTT antiproliferative assay, HCT-116; type: cell-based; conditions: Homo sapiens, HCT-116; MTT, 48 h; read-out: Antiproliferative Activity GI50, Colon HCT-116
Protocol: as §1

Recombinant human HDAC4 = target: T1, Recombinant human HDAC4 (Homo sapiens, UniProt P56524); assay: HDAC-Glo I/II assay, HDAC4; type: biochemical; conditions: Class IIa HDAC; compounds reduced by TCEP prior to assay; read-out: IC50 of HDAC4
T1 construct: purchased BPS Bioscience Inc
Protocol: (§2) The purified compounds of all fragments and natural product derivatives were evaluated for inhibitory effects on three different classes of HDAC proteins (class I, IIa, and IIb). […] All activity was determined by using a fluorescence-based in vitro assay. Class I HDAC proteins that were evaluated were HDAC1, HDAC2, HDAC3, HDAC8, HDAC4, and HDAC6. Class IIa HDAC protein were HDAC4 and the Class IIb HDAC protein were HDAC6.
(§3) HDAC-Glo™ I/II Assay and Screening System (Promega) was used to determine the HDAC inhibitory activity. Recombinant human HDAC1, HDAC2, HDAC3, HDAC4, HDAC6 and HDAC8 were purchased from BPS Bioscience Inc. The inhibitory activities of the test compounds against recombinant HDAC were performed according to reagent suppliers' protocols.
(§4) All test compounds were firstly dissolved in DMSO to make 10 mM stock solution. A certain amount of stock solution was diluted to 1 mM by DMSO and then reduced by tris(2-carboxyethyl)phosphine hydrochloride (TCEP) in a molar ration of 1:1.5 for 20 min at ambient temperature prior to being assayed. After reduction, a series of fivefold dilutions of each reduced compound were prepared with HDAC-Glo buffer and 25 μL of each dilution was added into a well on a 96-well plate. HDAC enzymes were diluted to the desired concentrations with HDAC-Glo buffer and 25 μL of each diluted enzyme was dispensed into a well to mix with 25 μL of testing compound at room temperature for 30-60 seconds. After the reaction mixture had been incubated at room temperature for 1 hour, 50 μL of HDAC-Glo reagent was added to each reaction well and mixed up for 30-60 seconds. Finally, the plate was incubated at room temperature for an additional 30 minutes before the luminescence was measured on a Synergy HT plate reader (Bio-Tek). The luminescence intensity data were analyzed using GraphPad Prism 5 (GraphPad Software). In the absence of any test compound, the luminescence intensity (I100) in each data set was defined as 100% activity. In the absence of both of HDAC enzymes and test compound, the luminescence intensity (I0) in each data set was defined as 0% activity. The relative activity (%) in the presence of each compound was calculated according to the following equation: % activity=(I−I0)/(I100−I0), where I=the luminescence intensity if a compound is present in the reaction. Experiments were performed in triplicate and the calculated mean values were used for plotting.

RFX393 (renal) = assay: MTT antiproliferative assay, RFX393; type: cell-based; conditions: MTT, 48 h; read-out: Antiproliferative Activity GI50, Renal RFX393
Protocol: as §1

Recombinant human HDAC8 = target: T2, Recombinant human HDAC8 (Homo sapiens, UniProt Q9BY41); assay: HDAC-Glo I/II assay, HDAC8; type: biochemical; conditions: Class I HDAC; compounds reduced by TCEP prior to assay
T2 construct: purchased BPS Bioscience Inc
T2 sequence (Q9BY41 1-377): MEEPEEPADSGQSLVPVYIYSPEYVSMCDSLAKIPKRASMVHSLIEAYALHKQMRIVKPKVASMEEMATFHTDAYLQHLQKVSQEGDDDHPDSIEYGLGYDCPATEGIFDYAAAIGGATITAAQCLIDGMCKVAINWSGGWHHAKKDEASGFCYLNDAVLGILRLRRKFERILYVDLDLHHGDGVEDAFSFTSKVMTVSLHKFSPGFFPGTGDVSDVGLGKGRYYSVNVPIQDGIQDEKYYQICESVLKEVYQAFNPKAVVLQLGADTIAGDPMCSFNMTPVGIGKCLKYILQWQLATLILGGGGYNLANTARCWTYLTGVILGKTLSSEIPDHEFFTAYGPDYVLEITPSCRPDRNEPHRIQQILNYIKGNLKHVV
Protocol: as §2, §3, §4

T1 sequence (P56524 whole entry): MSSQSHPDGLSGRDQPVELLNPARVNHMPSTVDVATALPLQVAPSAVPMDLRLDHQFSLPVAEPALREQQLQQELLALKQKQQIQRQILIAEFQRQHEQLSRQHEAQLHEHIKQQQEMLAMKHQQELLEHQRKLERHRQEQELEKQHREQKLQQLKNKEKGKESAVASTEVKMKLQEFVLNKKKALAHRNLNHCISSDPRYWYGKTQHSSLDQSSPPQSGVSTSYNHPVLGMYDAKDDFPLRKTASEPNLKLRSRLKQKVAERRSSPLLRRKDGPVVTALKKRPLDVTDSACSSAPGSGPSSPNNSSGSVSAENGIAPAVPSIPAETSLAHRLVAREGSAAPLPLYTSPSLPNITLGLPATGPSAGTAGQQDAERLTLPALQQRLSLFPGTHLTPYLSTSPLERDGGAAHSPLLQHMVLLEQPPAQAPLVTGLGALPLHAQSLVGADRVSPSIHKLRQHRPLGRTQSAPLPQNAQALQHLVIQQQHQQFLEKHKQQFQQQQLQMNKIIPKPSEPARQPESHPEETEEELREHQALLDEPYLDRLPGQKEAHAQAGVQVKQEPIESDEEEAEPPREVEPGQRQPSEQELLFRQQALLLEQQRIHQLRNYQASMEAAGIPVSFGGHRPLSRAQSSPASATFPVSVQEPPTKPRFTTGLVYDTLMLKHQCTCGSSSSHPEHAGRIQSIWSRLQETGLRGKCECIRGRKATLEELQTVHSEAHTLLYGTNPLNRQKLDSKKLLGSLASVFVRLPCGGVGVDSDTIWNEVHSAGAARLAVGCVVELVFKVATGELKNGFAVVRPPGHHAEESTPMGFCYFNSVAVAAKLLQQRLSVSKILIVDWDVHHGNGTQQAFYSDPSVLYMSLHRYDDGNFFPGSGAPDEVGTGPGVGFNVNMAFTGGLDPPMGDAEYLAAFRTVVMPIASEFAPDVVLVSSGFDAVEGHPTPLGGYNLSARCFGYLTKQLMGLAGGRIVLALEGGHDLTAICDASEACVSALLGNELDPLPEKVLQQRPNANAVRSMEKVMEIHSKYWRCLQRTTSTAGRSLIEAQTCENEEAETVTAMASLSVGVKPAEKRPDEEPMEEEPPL

SMILES | MTD at 2 weeks (in vivo) [mg/kg] | Solubility [1] | GI50 (HeLa (cervical cancer)) [µM] | GI50 (HCT-116 (colon cancer)) [µM] | IC50 (Recombinant human HDAC4) [µM] | GI50 (RFX393 (renal)) [µM] | IC50 (Recombinant human HDAC8) [µM]
CSCC[C@H]1NC(=O)CC(O)/C=C/CCSSC[C@H](C(=O)O)NC1=O (stereo partly drawn) [TDF3, (4S,7R,12E)-11-hydroxy-7-[2-(methylsulfanyl)ethyl]-6,9-dioxo-1,2-dithia-5,8-diazacyclopentadec-12-ene-4-carboxylic acid] | > 200 | Soluble | 0.6 | 0.3 | > 1000 | 0.2 | 62.8
COC(=O)[C@H]1CSSCC/C=C/C(O)CC(=O)N[C@H](CCSC)C(=O)N1 (stereo partly drawn) [TDF3m, Methyl (4S,7R,12E)-11-hydroxy-7-[2-(methylsulfanyl)ethyl]-6,9-dioxo-1,2-dithia-5,8-diazacyclopentadec-12-ene-4-carboxylate] | > 200 | Partially soluble | 0.4 | 0.2 | > 1000 | 0.3 | 63
